According to patent publication US5468767A, “Antidepressant 3-(aminocycloalkenyl)-indole-5-nitrile derivatives” (Bristol-Myers Squibb Company, priority 1994, dated 1995):

Tested on: synaptosomal re-uptake of tritiated serotonin
Test: In vitro inhibition of synaptosomal re-uptake of tritiated serotonin (5-HT uptake inhibition)
Assay type: biochemical
Protocol: Determination of endogenous monoaminergic re-uptake inhibition values both for serotonin and norepinephrine was accomplished using test methods described by P. Skolnick, et al., Br. J. Pharmacology, (1985), 86, pp. 637-644; with only minor modifications. In vitro IC50 (nM) test values were determined for representative compounds of Formula I based on their inhibition of synaptosomal re-uptake of tritiated serotonin. Test data IC50 values lower than 500 nM are considered to reflect activity as an inhibitor of serotonin re-uptake.
In vitro IC50 (nM) test values below 100 nM are designated with ** and those below 10 nM with ***.

SMILES | IC50 [µM]
CN(C)C1CC=C(c2c[nH]c3ccc(C#N)cc23)CC1 (stereo not drawn) [Example 23] | < 0.01
CCN(CC)C1CC=C(c2c[nH]c3ccc(C#N)cc23)CC1 (stereo not drawn) [Example 24] | < 0.1
CC(C)NC1CC=C(c2c[nH]c3ccc(C#N)cc23)CC1 (stereo not drawn) [Example 26] | < 0.1
N#Cc1ccc2[nH]cc(C3=CCC(NCc4ccccc4)CC3)c2c1 (stereo not drawn) [Example 27] | < 0.01
N#Cc1ccc2[nH]cc(C3=CCC(NCCc4ccccc4)CC3)c2c1 (stereo not drawn) [Example 28] | < 0.01
CN(CCc1ccccc1)C1CC=C(c2c[nH]c3ccc(C#N)cc23)CC1 (stereo not drawn) [Example 29] | < 0.01
N#Cc1ccc2[nH]cc(C3=CCC(NCCc4cccc(F)c4)CC3)c2c1 (stereo not drawn) [Example 30] | < 0.01
N#CCc1ccc2[nH]cc(C3=CCC(NCCc4ccccc4)CC3)c2c1 (stereo not drawn) [Example 31, 3-[[4-(2-Phenylethyl)amino]-1-cyclohexen-1-yl]-1H-indole-5-acetonitrile] | < 0.1
N#Cc1ccc2[nH]cc(C3=CCC(NCCc4ccccc4F)CC3)c2c1 (stereo not drawn) [Example 32] | < 0.01
N#Cc1ccc2[nH]cc(C3=CCC(NCCc4ccc(F)cc4)CC3)c2c1 (stereo not drawn) [Example 33] | < 0.01
COc1ccccc1CCNC1CC=C(c2c[nH]c3ccc(C#N)cc23)CC1 (stereo not drawn) [Example 34] | < 0.01
COc1cccc(CCNC2CC=C(c3c[nH]c4ccc(C#N)cc34)CC2)c1 (stereo not drawn) [Example 35] | < 0.01
COc1ccc(CCNC2CC=C(c3c[nH]c4ccc(C#N)cc34)CC2)cc1 (stereo not drawn) [Example 36] | < 0.01
N#Cc1ccc2[nH]cc(C3=CCC(NCCc4cccnc4)CC3)c2c1 (stereo not drawn) [Example 37] | < 0.01
N#Cc1ccc2[nH]cc(C3=CCC(NCCCc4ccccc4)CC3)c2c1 (stereo not drawn) [Example 38] | < 0.01
N#Cc1ccc2[nH]cc(C3=CCC(NCC4COc5ccccc5O4)CC3)c2c1 (stereo not drawn) [Example 39] | < 0.01
N#Cc1ccc2[nH]cc(C3=CCC(NCCCCc4ccccc4)CC3)c2c1 (stereo not drawn) [Example 40] | < 0.01
CCNC1CC=C(c2c[nH]c3ccc(C#N)cc23)CC1 (stereo not drawn) [Example 41] | < 0.1
